IC50 data for 13 compounds are collected here from patent US20240228512A1, “ACYCLIC OXAZEPINE COMPOUNDS COMPRISING A 6-AZA MOIETY AND USES THEREOF” (Genentech, Inc., priority 2022, published 2024).

In test [1] the target is recombinant human KRAS wild type (SOS1-mediated nucleotide exchange) (Homo sapiens (Human), UniProt P01116). The test can be described thus: KRAS biochemical assay, BODIPY-GDP exchange TR-FRET (WT-GDP HTRF). On the procedure:
[Worded in the source for another variant; this variant is reported under the same test.] KRAS Biochemical Assay—BODIPY-GDP Exchange TR-FRET.
Biochemical compound potencies were assessed by evaluating inhibition of SOS1-mediated nucleotide exchange in KRAS G12D. The SOS1-promoted exchange of fluorescently-labeled GDP (BOPIDY-GDP) was monitored by time-resolved fluorescence resonance energy transfer (TR-FRET). Compounds solubilized in DMSO were dispensed as concentration series into 384-well white assay plates. […] The reaction was initiated with the addition of 5 μL of 3 nM recombinant human SOS1 and 300 nM BODIPY-GDP in assay buffer. After a 60-minute incubation, the fluorescence was measured with excitation at 337 nm and emission at 490 and 520 nm. The TR-FRET ratio was determined as the fluorescence at 520 nm divided by the fluorescence at 490 nm multiplied by 10,000. […] The normalized TR-FRET results were plotted against compound concentration, and the data fit to a 4-parameter Hill equation to determine the IC50 values.

Test [2] deals with recombinant human mutant KRas G12V (SOS1-mediated nucleotide exchange) (Homo sapiens (Human), UniProt P01116, G12V). In words: KRAS biochemical assay, BODIPY-GDP exchange TR-FRET (G12V-GDP HTRF).
recombinant human mutant KRas G12V (SOS1-mediated nucleotide exchange), sequence (P01116-2 other isoform, or with tags, fused parts or gaps G12V): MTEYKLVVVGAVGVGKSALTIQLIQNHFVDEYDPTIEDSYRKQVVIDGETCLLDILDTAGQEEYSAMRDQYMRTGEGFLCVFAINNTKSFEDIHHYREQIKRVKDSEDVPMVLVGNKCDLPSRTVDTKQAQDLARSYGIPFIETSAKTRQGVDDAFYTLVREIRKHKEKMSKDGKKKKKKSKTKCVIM
For another test, the system named is SW620 cells. In words: SW620 3D proliferation assay (CellTiter-Glo). To be noted: Homo sapiens, SW-620, 168 h, SW620, 3D culture, 7 days, read-out: SW620 CTG IC50. Format: cell-based. On the procedure:
(§1) SW620 and HPAC 3D proliferation assays.
(§2) Compound potencies were assessed in proliferation assays conducted with SW620 and HPAC cell lines grown in 3D cultures. Cells were seeded into 96- or 384-well ultra-low attachment plates at 3000 or 1000 cells/well, respectively, in culture medium (RPMI-1640, 10% FBS, 2 mM L-glutamine). The plated cells were centrifuged briefly, allowed to rest for 30 minutes under ambient conditions, and cultured overnight at 37° C./5% CO2 to initiate the formation of spheroids. Compound dilutions were prepared across a range of concentrations in DMSO and added to the appropriate wells of the assay plates with a 333-fold dilution into the culture medium. The plates were further incubated for 7 days. The quantity of viable cells was assessed using CellTiter-Glo 3D Cell Viability Assay (Promega). The detection reagent penetrates the spheroids and lyses the cells. The released ATP that was detected with luciferase and a luciferase substrate to generate a luminescent readout. […] The data points were fit to a 4-parameter logistic equation to determine IC50 values.
Background: ATP-based viability assays read luminescence as a measure of living cells.

For the next test, the system named is H1975 cells. The test can be described thus: H1975 CTG proliferation assay. Format: cell-based. The conditions noted are these: Homo sapiens, NCI-H1975, H1975, CTG.
The test system of the next test is HPAC cells. The test can be described thus: HPAC 3D proliferation assay (CellTiter-Glo). Format: cell-based. The conditions noted are these: Homo sapiens, 168 h, 3D culture, 7 days, read-out: HPAC CTG IC50. On the procedure:
as §1, §2

For the next test, the system named is SW620 PERK. The test can be described thus: SW620 PERK assay. The conditions noted are these: Homo sapiens, SW-620, SW620, PERK. Format: cell-based.

recombinant human KRAS wild type (SOS1-mediated nucleotide exchange), sequence (P01116-2 other isoform, or with tags, fused parts or gaps): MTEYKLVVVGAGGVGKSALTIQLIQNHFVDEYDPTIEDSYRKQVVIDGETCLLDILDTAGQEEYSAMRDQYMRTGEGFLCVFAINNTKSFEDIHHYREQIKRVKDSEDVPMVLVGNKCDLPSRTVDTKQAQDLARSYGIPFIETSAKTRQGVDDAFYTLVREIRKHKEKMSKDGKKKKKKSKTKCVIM

What is called IC50 is the concentration that gives 50% inhibition. For the compound `Cc1nc(N)c(Cl)c(-c2nc3c4c(nc(OC[C@@]56CCCN5C[C@H](F)C6)nc4c2F)N([C@H](C)c2cccnc2N)CCO3)c1C(F)(F)F` (single isomer, unassigned) [Example 601b], the IC50 is 3.16 nM in test [1] and 0.76 nM in test [2].
In the case of `Cc1c(F)c(N)cc(-c2nc3c4c(nc(OC[C@@H]5CC(F)(F)CN5C)nc4c2F)N([C@H](C)c2nccnc2N)CCO3)c1C(F)(F)F` [Example 8, 3-((R)-1-(5-(5-amino-4-fluoro-3-methyl-2-(trifluoromethyl)phenyl)-2-(((S)-4,4-difluoro-1-methylpyrrolidin-2-yl)methoxy)-4-fluoro-8,9-dihydro-10H-7-oxa-1,3,6,10-tetraazacyclohepta[de]naphthalen-10-yl)ethyl)pyrazin-2-amine], the IC50 in the test with SW620 cells worked out at 456 nM; in the test with H1975 cells, 555 nM; with HPAC cells it was 2000 nM; in the test on SW620 PERK it was 139 nM.
Consider `Cc1c(F)c(N)cc(-c2nc3c4c(nc(OC[C@@]56CCCN5C[C@H](F)C6)nc4c2F)N([C@H](C)c2nccnc2N)CCO3)c1C(F)(F)F` [Example 9, 3-((R)-1-(5-(5-amino-4-fluoro-3-methyl-2-(trifluoromethyl)phenyl)-4-fluoro-2-(((2R,7aS)-2-fluorotetrahydro-1H-pyrrolizin-7a(5H)-yl)methoxy)-8,9-dihydro-10H-7-oxa-1,3,6,10-tetraazacyclohepta[de]naphthalen-10-yl)ethyl)pyrazin-2-amine], for which the IC50 in the test on SW620 cells stood at 26.2 nM; in the test with H1975 cells, 11.2 nM; in the test on HPAC cells it was 74.7 nM; in the test with SW620 PERK, 19.3 nM.
On the same counts, the results for `Cc1c(F)c(N)cc(-c2nc3c4c(nc(OC[C@@H]5CC[C@H]6COCCN65)nc4c2F)N([C@H](C)c2nccnc2N)CCO3)c1C(F)(F)F` [Example 10, 3-((R)-1-(5-(5-amino-4-fluoro-3-methyl-2-(trifluoromethyl)phenyl)-4-fluoro-2-(((6S,8aS)-hexahydro-1H-pyrrolo[2,1-c][1,4]oxazin-6-yl)methoxy)-8,9-dihydro-10H-7-oxa-1,3,6,10-tetraazacyclohepta[de]naphthalen-10-yl)ethyl)pyrazin-2-amine] are 114 nM, 53.4 nM, 439 nM and 29.9 nM.
On to `C#Cc1cccc2cc(O)cc(-c3nc4c5c(nc(OC[C@@]67CCCN6C[C@H](F)C7)nc5c3F)N([C@H](C)c3nccnc3N)CCO4)c12` [Example 11, 4-(10-((R)-1-(3-aminopyrazin-2-yl)ethyl)-4-fluoro-2-(((2R,7aS)-2-fluorotetrahydro-1H-pyrrolizin-7a(5H)-yl)methoxy)-9,10-dihydro-8H-7-oxa-1,3,6,10-tetraazacyclohepta[de]naphthalen-5-yl)-5-ethynyinaphthalen-2-ol], for which the IC50 with SW620 cells came out at 5.32 nM; with H1975 cells, 2.59 nM; with HPAC cells it was 173 nM; in the test with SW620 PERK it was 1.9 nM.
As for `Cc1c(F)c(N)c(F)c(-c2nc3c4c(nc(OC[C@@]56CCCN5C[C@H](F)C6)nc4c2F)N([C@H](C)c2nccnc2N)CCO3)c1C(F)(F)F` [Example 13, 3-((1R)-1-(5-(3-amino-2,4-difluoro-5-methyl-6-(trifluoromethyl)phenyl)-4-fluoro-2-(((2R,7aS)-2-fluorotetrahydro-1H-pyrrolizin-7a(5H)-yl)methoxy)-8,9-dihydro-10H-7-oxa-1,3,6,10-tetraazacyclohepta[de]naphthalen-10-yl)ethyl)pyrazin-2-amine], the results for the IC50 with SW620 cells and in the test with H1975 cells were 26.7 nM and 73.4 nM, respectively.
For the compound `Cc1c(F)c(N)cc(-c2nc3c4c(nc(OC[C@@H]5CC(F)(F)CN5C)nc4c2F)N([C@H](C)c2cccnc2N)CCO3)c1C(F)(F)F` [Example 20, 3-((R)-1-(5-(5-amino-4-fluoro-3-methyl-2-(trifluoromethyl)phenyl)-2-(((S)-4,4-difluoro-1-methylpyrrolidin-2-yl)methoxy)-4-fluoro-8,9-dihydro-10H-7-oxa-1,3,6,10-tetraazacyclohepta[de]naphthalen-10-yl)ethyl)pyridin-2-amine], the IC50 with SW620 cells was found to be 30.3 nM; in the test on H1975 cells it was 421 nM; in the test with HPAC cells it was 484 nM; in the test with SW620 PERK it was 8.59 nM.
On to `Cc1cc(N)c(F)c(-c2nc3c4c(nc(OC[C@@]56CCCN5C[C@H](F)C6)nc4c2F)N([C@H](C)c2nccnc2N)CCO3)c1C(F)(F)F` [Example 23, 3-((1R)-1-(5-(3-amino-2-fluoro-5-methyl-6-(trifluoromethyl)phenyl)-4-fluoro-2-(((2R,7aS)-2-fluorotetrahydro-1H-pyrrolizin-7a(5H)-yl)methoxy)-8,9-dihydro-10H-7-oxa-1,3,6,10-tetraazacyclohepta[de]naphthalen-10-yl)ethyl)pyrazin-2-amine], for which the IC50 with SW620 cells is 31.6 nM; with H1975 cells, 32.5 nM; with HPAC cells, 92 nM; in the test on SW620 PERK, 7.33 nM.
For `Cc1c(F)c(N)cc(-c2nc3c4c(nc(OC[C@@]56CCCN5C[C@H](F)C6)nc4c2Cl)N([C@H](C)c2cccnc2N)CCO3)c1C(F)(F)F` [Example 32, 3-((R)-1-(5-(5-amino-4-fluoro-3-methyl-2-(trifluoromethyl)phenyl)-4-chloro-2-(((2R,7aS)-2-fluorotetrahydro-1H-pyrrolizin-7a(5H)-yl)methoxy)-8,9-dihydro-10H-7-oxa-1,3,6,10-tetraazacyclohepta[de]naphthalen-10-yl)ethyl)pyridin-2-amine] the same measures were 2.25 nM, 7.12 nM, 18.7 nM and 2.45 nM.
On to `Cc1c(F)c(N)cc(-c2nc3c4c(nc(OC[C@@]56CCCN5C[C@H](F)C6)nc4c2F)N([C@H](C)c2cccnc2N)CCO3)c1CC(F)F` [Example 612, 3-((R)-1-(5-(5-amino-2-(2,2-difluoroethyl)-4-fluoro-3-methylphenyl)-4-fluoro-2-(((2R,7aS)-2-fluorotetrahydro-1H-pyrrolizin-7a(5H)-yl)methoxy)-8,9-dihydro-10H-7-oxa-1,3,6,10-tetraazacyclohepta[de]naphthalen-10-yl)ethyl)pyridin-2-amine], for which the IC50 in the test on SW620 cells is 28.4 nM; in the test on H1975 cells, 2500 nM; in the test with HPAC cells it was 359 nM; in the test with SW620 PERK, 15.6 nM.
For `C[C@H](c1cccnc1N)N1CCOc2nc(-c3c(C(F)(F)F)cc(F)c(N)c3F)c(F)c3nc(OC[C@@]45CCCN4C[C@H](F)C5)nc1c23` [Example 621, 3-((1R)-1-(5-(3-amino-2,4-difluoro-6-(trifluoromethyl)phenyl)-4-fluoro-2-(((2R,7aS)-2-fluorotetrahydro-1H-pyrrolizin-7a(5H)-yl)methoxy)-8,9-dihydro-10H-7-oxa-1,3,6,10-tetraazacyclohepta[de]naphthalen-10-yl)ethyl)pyridin-2-amine], the IC50 in the test with SW620 cells was found to be 30.6 nM; with H1975 cells it was 97.7 nM; in the test with HPAC cells, 339 nM; with SW620 PERK it was 22.1 nM.
On the same counts, the results for `Cc1c(F)c(N)c(F)c(-c2nc3c4c(nc(OC[C@@H]5CCCN5C)nc4c2F)N([C@H](C)c2cccnc2N)CCO3)c1C(F)(F)F` [Example 624, 3-((1R)-1-(5-(3-amino-2,4-difluoro-5-methyl-6-(trifluoromethyl)phenyl)-4-fluoro-2-(((S)-1-methylpyrrolidin-2-yl)methoxy)-8,9-dihydro-10H-7-oxa-1,3,6,10-tetraazacyclohepta[de]naphthalen-10-yl)ethyl)pyridin-2-amine] are 11.5 nM, 363 nM, 70.5 nM and 5.56 nM.
`C[C@H](c1cccnc1N)N1CCOc2nc(-c3c(F)ccc4cnn(C)c34)c(F)c3nc(OC[C@@]45CCCN4C[C@H](F)C5)nc1c23` [Example 634, 3-((1R)-1-(4-fluoro-5-(6-fluoro-1-methyl-1H-indazol-7-yl)-2-(((2R,7aS)-2-fluorotetrahydro-1H-pyrrolizin-7a(5H)-yl)methoxy)-8,9-dihydro-10H-7-oxa-1,3,6,10-tetraazacyclohepta[de]naphthalen-10-yl)ethyl)pyridin-2-amine]: the 50% inhibitory concentration (IC50) in the test on SW620 cells worked out at 612 nM; in the test on H1975 cells, 3660 nM; with HPAC cells, 1750 nM; in the test with SW620 PERK it was 85.2 nM.
